Source: patent US11685714B2, “Prodrugs of cytotoxic active agents having enzymatically cleavable groups” (BAYER PHARMA AKTIENGESELLSCHAFT, priority 2016, dated 2023)
Counter-ions that a name gives are not always drawn.

Columns and labels:
Format in all cases: cell-based
[1] = test system: NCI-H292: human mucoepidermoid lung carcinoma cells; assay: MTT assay on NCI-H292; conditions: 96 h incubation
Method: (§1) The analysis of the cytotoxic effects of the ADCs was carried out with various cell lines:
(§2) The cells were cultivated by the standard method as stated by the American Tissue Culture Collection (ATCC) or the Leibniz-lnstitut DSMZ-Deutsche Sammlung von Mikroorganismen und Zellkulturen GmbH (DSMZ) for the cell lines in question.
(§3) The cells were then incubated in an incubator at 37° C. and 5% carbon dioxide. […] To this end, the MTT reagent was incubated with the cells for 4 h, followed by lysis of the cells overnight by addition of the detergent. […] The measured data were used to calculate the ICo50 of the growth inhibition using the DRC (dose response curve). The proliferation of cells which were not treated with test substance but were otherwise identically treated was defined as the 100% figure.

[2] = test system: SK-HEP-1: human liver cell cancer line; assay: MTT assay on SK-HEP-1; conditions: SK-HEP1, 96 h, growth inhibition, 96 h incubation
Method: as §1, §2, §3

[3] = test system: KPL4: human breast cancer cell line; assay: MTT assay on KPL4; conditions: 96 h incubation
Method: as §1, §2, §3

[4] = NCI-H292, 96 h, growth inhibition

Compound: CC(C)(C)[C@H](c1cc(-c2cc(F)ccc2F)cn1Cc1ccccc1)N(CCCN)C(=O)CSC[C@H](NC(=O)CCOCCOCCOCCOCCNC(=O)CNC(=O)CC(SC[C@H](N)C(=O)O)C(=O)O)C(=O)O (stereo partly drawn) [Example M20, (1R,4R,27R,33R)-1-Amino-32-(3-aminopropyl)-33-[1-benzyl-4-(2,5-difluorophenyl)-1H-pyrrol-2-yl]-34,34-dimethyl-6,9,25,31-tetraoxo-13,16,19,22-tetraoxa-3,29-dithia-7,10,26,32-tetraazapentatriacontane-1,4,27-tricarboxylic acid/trifluoroacetic acid (1:2)]
- IC50 [1, 4]: 149 nM
- IC50 [2]: 181 nM
- IC50 ([3]; KPL4, 96 h, growth inhibition): 213 nM

Compound: CC(C)(C)[C@H](c1cc(-c2cc(F)ccc2F)cn1Cc1ccccc1)N(CC[C@H](N)C(=O)NCCNC(=O)CSC[C@H](N)C(=O)O)C(=O)CO [Example M7, S-(2-{[2-({(2S)-2-Amino-4-[{(1R)-1-[1-benzyl-4-(2,5-difluorophenyl)-1H-pyrrol-2-yl]-2,2-dimethylpropyl}(glycoloyl)amino]butanoyl}amino)ethyl]amino}-2-oxoethyl)-L-cysteine/trifluoroacetic acid (1:1)]
- IC50 [1, 4]: 21.2 nM
- IC50 ([3]; KPL4, 96 h, growth inhibition): 92.3 nM

Compound: CC(C)(C)[C@H](c1cc(-c2cc(F)ccc2F)cn1Cc1ccccc1)N(CCCN)C(=O)CSC[C@H](NC(=O)CCC(=O)O)C(=O)O [Example M12, 4-{[(1R)-2-({2-[(3-Aminopropyl){(1R)-1-[1-benzyl-4-(2,5-difluorophenyl)-1H-pyrrol-2-yl]-2,2-dimethylpropyl}amino]-2-oxoethyl}sulphanyl)-1-carboxyethyl]amino}-4-oxobutanoic acid/trifluoroacetic acid (1:1)]
- IC50 [1, 4]: 33 nM
- IC50 [2]: 21.1 nM

Compound: CC(C)(C)[C@H](c1cc(-c2cc(F)ccc2F)cn1Cc1ccccc1)N(CC[C@H](N)C(=O)NCCC(=O)N[C@H](CCC(=O)O)C(=O)O)C(=O)CO [Example M24, N-{(2S)-2-Amino-4-[{(1R)-1-[1-benzyl-4-(2,5-difluorophenyl)-1H-pyrrol-2-yl]-2,2-dimethylpropyl}(glycoloyl)amino]butanoyl}-beta-alanyl-D-glutamic acid/trifluoroacetic acid (1:1)]
- IC50 [1, 4]: 167 nM
- IC50 [2]: 57.3 nM
- IC50 ([3]; KPL4, 96 h, growth inhibition): 500 nM

Compound: CC(C)(C)[C@H](c1cc(-c2cc(F)ccc2F)cn1Cc1ccccc1)N(CC[C@H](N)C(=O)NCCNC(=O)CNC(=O)CC(SC[C@H](N)C(=O)O)C(=O)O)C(=O)CO (single isomer, unassigned) [Example M14]
- IC50 [1, 4]: 174 nM
- IC50 [2]: 94.3 nM
- IC50 ([3]; KPL4, 96 h, growth inhibition): 177 nM

Compound: CC(C)(C)[C@H](c1cc(-c2cc(F)ccc2F)cn1Cc1ccccc1)N(CC[C@H](N)C(=O)NCCOCCN1C(=O)CC(SC[C@H](N)C(=O)O)C1=O)C(=O)CO (stereo partly drawn) [Example M4, S-(1-{2-[2-({(2S)-2-Amino-4-[{(1R)-1-[1-benzyl-4-(2,5-difluorophenyl)-1H-pyrrol-2-yl]-2,2-dimethylpropyl}(glycoloyl)amino]butanoyl}amino)ethoxy]ethyl}-2,5-dioxopyrrolidin-3-yl)-L-cysteine/trifluoroacetic acid (1:1)]
- IC50 [1, 4]: 44.3 nM
- IC50 [2]: 34.5 nM
- IC50 ([3]; KPL4, 96 h, growth inhibition): 176 nM

Compound: CC(C)(C)[C@H](c1cc(-c2cc(F)ccc2F)cn1Cc1ccccc1)N(CC[C@H](N)C(=O)NCCC(=O)NCCCC[C@H](N)C(=O)O)C(=O)CO [Example M19, N^6—(N-{(2S)-2-Amino-4-[{(1R)-1-[1-benzyl-4-(2,5-difluorophenyl)-1H-pyrrol-2-yl]-2,2-dimethylpropyl}(glycoloyl)amino]butanoyl}-beta-alanyl)-L-lysine/trifluoroacetic acid (1:1)]
- IC50 [1, 4]: 121 nM

Compound: CC(C)(C)[C@H](c1cc(-c2cc(F)ccc2F)cn1Cc1ccccc1)N(CC[C@H](N)C(=O)NCCNC(=O)CNC(=O)CC1SC[C@@H](C(=O)O)NC1=O)C(=O)CO (stereo partly drawn) [Example M08, (3R)-6-{(11 S,15R)-11-Amino-15-[1-benzyl-4-(2,5-difluorophenyl)-1H-pyrrol-2-yl]-14-glycoloyl-16,16-dimethyl-2,5,10-trioxo-3,6,9,14-tetraazaheptadec-1-yl}-5-oxothiomorpholine-3-carboxylic acid/trifluoroacetic acid (1:1)]
- IC50 ([3]; KPL4, 96 h, growth inhibition): 487 nM

Compound: CC(C)(C)[C@H](c1cc(-c2cc(F)ccc2F)cn1Cc1ccccc1)N(CCCN)C(=O)CSC[C@H](N)C(=O)O [Example M11, S-{2-[(3-Aminopropyl){(1R)-1-[1-benzyl-4-(2,5-difluorophenyl)-1H-pyrrol-2-yl]-2,2-dimethylpropyl}amino]-2-oxoethyl}-L-cysteine/trifluoroacetic acid (1:2)]
- IC50 [1, 4]: 0.0432 nM
- IC50 [2]: 0.189 nM

Compound: CC(C)(C)[C@H](c1cc(-c2cc(F)ccc2F)cn1Cc1ccccc1)N(CC[C@H](N)C(=O)NCCNC(=O)CNC(=O)CC(SC[C@H](N)C(=O)O)C(=O)O)C(=O)CO (single isomer, unassigned) [Example M13]
- IC50 [1, 4]: 152 nM
- IC50 [2]: 68.1 nM
- IC50 ([3]; KPL4, 96 h, growth inhibition): 169 nM

Compound: CC(C)(C)[C@H](c1cc(-c2cc(F)ccc2F)cn1Cc1ccccc1)N(CC[C@H](N)C(=O)NCCNC(=O)CNC(=O)C(CC(=O)O)SC[C@H](N)C(=O)O)C(=O)CO (stereo partly drawn) [Example M27, 4-[(2-{[2-({(2S)-2-Amino-4-[{(1R)-1-[1-benzyl-4-(2,5-difluorophenyl)-1H-pyrrol-2-yl]-2,2-dimethylpropyl}(glycoloyl)amino]butanoyl}amino)ethyl]amino}-2-oxoethyl)amino]-3-{[(2R)-2-amino-2-carboxyethyl]sulphanyl}-4-oxobutanoic acid/trifluoroacetic acid (1:1)]
- IC50 [1, 4]: 276 nM
- IC50 [2]: 89 nM

Compound: CC(C)(C)[C@H](c1cc(-c2cc(F)ccc2F)cn1Cc1ccccc1)N(CC[C@H](N)C(=O)O)C(=O)CO [Example M17, (2S)-2-Amino-4-[{(1R)-1-[1-benzyl-4-(2,5-difluorophenyl)-1H-pyrrol-2-yl]-2,2-dimethylpropyl}(glycoloyl)amino]butanoic acid hydrochloride (1:1)]
- IC50 [1, 4]: 7.35 nM

Compound: CC(C)(C)[C@H](c1cc(-c2cc(F)ccc2F)cn1Cc1ccccc1)N(CC[C@H](N)C(=O)NCCC(=O)N[C@@H](CCC(=O)O)C(=O)O)C(=O)CO [Example M23, N-{(2S)-2-Amino-4-[{(1R)-1-[1-benzyl-4-(2,5-difluorophenyl)-1H-pyrrol-2-yl]-2,2-dimethylpropyl}(glycoloyl)amino]butanoyl}-beta-alanyl-L-glutamic acid/trifluoroacetic acid (1:1)]
- IC50 [1, 4]: 500 nM
- IC50 [2]: 500 nM
- IC50 ([3]; KPL4, 96 h, growth inhibition): 500 nM

Compound: CC(C)(C)[C@H](c1cc(-c2cc(F)ccc2F)cn1Cc1ccccc1)N(CC[C@H](N)C(=O)NCCNC(=O)CC[C@H](N)C(=O)O)C(=O)CO [Example M18, N-[2-({(2S)-2-Amino-4-[{(1R)-1-[1-benzyl-4-(2,5-difluorophenyl)-1H-pyrrol-2-yl]-2,2-dimethylpropyl}(glycoloyl)amino]butanoyl}amino)ethyl]-L-glutamine/trifluoroacetic acid (1:1)]
- IC50 [1, 4]: 35.5 nM

Compound: CC(C)(C)[C@H](c1cc(-c2cc(F)ccc2F)cn1Cc1ccccc1)N(CCCN)C(=O)CO [Example M9, N-(3-Aminopropyl)-N-{(1R)-1-[1-benzyl-4-(2,5-difluorophenyl)-1H-pyrrol-2-yl]-2,2-dimethylpropyl}-2-hydroxyacetamide]
- IC50 ([1]; NCI-H292, growth inhibition): 0.27 nM
- IC50 ([3]; KPL4, growth inhibition): 0.514 nM

Compound: CC(C)(C)[C@H](c1cc(-c2cc(F)ccc2F)cn1Cc1ccccc1)N(CC[C@H](N)C(=O)NCCNC(=O)CN1C(=O)CC(SC[C@H](N)C(=O)O)C1=O)C(=O)CO (stereo partly drawn) [Example M1, S-[1-(2-{[2-({(2S)-2-Amino-4-[{(1R)-1-[1-benzyl-4-(2,5-difluorophenyl)-1H-pyrrol-2-yl]-2,2-dimethylpropyl}(glycoloyl)amino]butanoyl}amino)ethyl]amino}-2-oxoethyl)-2,5-dioxopyrrolidin-3-yl]-L-cysteine/trifluoroacetic acid (1:1)]
- IC50 [1, 4]: 500 nM
- IC50 ([3]; KPL4, 96 h, growth inhibition): 500 nM

Compound: CC(C)(C)[C@H](c1cc(-c2cc(F)ccc2F)cn1Cc1ccccc1)N(CC[C@H](N)C(=O)NCCNC(=O)CNC(=O)C(CC(=O)O)SC[C@H](N)C(=O)O)C(=O)CO (single isomer, unassigned) [Example M15]
- IC50 [1, 4]: 133 nM
- IC50 [2]: 49.8 nM
- IC50 ([3]; KPL4, 96 h, growth inhibition): 169 nM
